Converted amounts (≈) assume the structure as drawn. The source made the active and inactive calls. The rule behind the calls is not given here.
Key:
Klebsiella pneumoniae = experiment: Antibacterial activity against Klebsiella pneumoniae MTCC 3384 after 24 hr by disk diffusion method; format: functional; details: for MIC: Klebsiella pneumoniae, MTCC 3384, 24 h
Enterococcus faecalis = experiment: Antibacterial activity against Enterococcus faecalis MTCC 3382 after 24 hr by disk diffusion method; format: functional; details: for MIC: Enterococcus faecalis, MTCC 3382, 24 h
Staphylococcus aureus [1] = experiment: Antibacterial activity against Staphylococcus aureus MTCC 3160 after 24 hr by disk diffusion method; format: functional; details: for MIC: Staphylococcus aureus, MTCC 3160, 24 h
Pseudomonas aeruginosa = experiment: Antibacterial activity against Pseudomonas aeruginosa MTCC 1034 after 24 hr by disk diffusion method; format: functional; details: for MIC: Pseudomonas aeruginosa, MTCC 1034, 24 h
Bacillus subtilis = experiment: Antibacterial activity against Bacillus subtilis MTCC 297 after 24 hr by disk diffusion method; format: functional; details: for MIC: Bacillus subtilis, MTCC 297, 24 h
Escherichia coli [2] = experiment: Antibacterial activity against Escherichia coli MTCC 1089 after 24 hr by disk diffusion method; format: functional; details: for MIC: Escherichia coli, MTCC 1089, 24 h
Mucor fuscus = experiment: Antifungal activity against Mucor fuscus after 3 to 4 days by serial dilution method; format: functional; details: for MIC: Mucor fuscus
Aspergillus fumigatus = experiment: Antifungal activity against Aspergillus fumigatus after 3 to 4 days by serial dilution method; format: functional; details: for MIC: Aspergillus fumigatus
Escherichia coli [3] = experiment: Induction of Escherichia coli MTCC 1089 DNA cleavage at 50 ug after 2 hr by agarose gel electrophoresis
Aspergillus niger [4] = experiment: Induction of Aspergillus niger DNA cleavage at 50 ug after 2 hr by agarose gel electrophoresis
Staphylococcus aureus [5] = experiment: Induction of Staphylococcus aureus MTCC 3160 DNA cleavage at 50 ug after 2 hr by agarose gel electrophoresis
Penicillium chrysogenum = experiment: Antifungal activity against Penicillium chrysogenum after 3 to 4 days by serial dilution method; format: functional; details: for MIC: Penicillium chrysogenum
Aspergillus niger [6] = experiment: Antifungal activity against Aspergillus niger after 3 to 4 days by serial dilution method; format: functional; details: for MIC: Aspergillus niger
Candida albicans = experiment: Antifungal activity against Candida albicans after 3 to 4 days by serial dilution method; format: functional; details: for MIC: Candida albicans
Fusarium oxysporum = experiment: Antifungal activity against Fusarium oxysporum after 3 to 4 days by serial dilution method; format: functional; details: for MIC: Fusarium oxysporum

Row | SMILES | inhibition zone (IZ) (Klebsiella pneumoniae) [mm] | MIC (Klebsiella pneumoniae) [µg/mL] | inhibition zone (IZ) (Enterococcus faecalis) [mm] | MIC (Enterococcus faecalis) [µg/mL] | inhibition zone (IZ) (Staphylococcus aureus [1]) [mm] | inhibition zone (IZ) (Pseudomonas aeruginosa) [mm] | inhibition zone (IZ) (Bacillus subtilis) [mm] | MIC (Bacillus subtilis) [µg/mL] | inhibition zone (IZ) (Escherichia coli [2]) [mm] | MIC (Escherichia coli [2]) [µg/mL] | inhibition zone (IZ) (Mucor fuscus) [mm] | MIC (Mucor fuscus) [µg/mL] | inhibition zone (IZ) (Aspergillus fumigatus) [mm] | MIC (Aspergillus fumigatus) [µg/mL] | Activity (Escherichia coli [3]) | Activity (Aspergillus niger [4]) | Activity (Staphylococcus aureus [5]) | inhibition zone (IZ) (Penicillium chrysogenum) [mm] | MIC (Penicillium chrysogenum) [µg/mL] | inhibition zone (IZ) (Aspergillus niger [6]) [mm] | other results
1 | O=C(O)c1cn(C2CC2)c2cc(N3CCNCC3)c(F)cc2c1=O [CIPROFLOXACIN] | 21 | 6.25 (≈ 18.9 µM) | 23 | 6.25 (≈ 18.9 µM) | 21 | 25 | 20 | 6.25 (≈ 18.9 µM) | 18 | 12.5 (≈ 37.7 µM) |  |  |  |  |  |  |  |  |  |  | 
2 | O=c1cc(COc2cccc(O)c2)c2cc(Br)ccc2o1 | 19 | 6.25 (≈ 18 µM) | 18 | 6.25 (≈ 18 µM) | 19 | 23 | 17 | 6.25 (≈ 18 µM) | 15 | 12.5 (≈ 36 µM) | 18 | 12.5 (≈ 36 µM) | 18 | 12.5 (≈ 36 µM) | Active | Active | Active | 19 | 6.25 (≈ 18 µM) | 21 | MIC (Aspergillus niger [6]): 6.25 µg/mL (≈ 18 µM); MIC (Staphylococcus aureus [1]): 6.25 µg/mL (≈ 18 µM); inhibition zone (IZ) (Candida albicans): 17 mm; MIC (Candida albicans): 6.25 µg/mL (≈ 18 µM); MIC (Pseudomonas aeruginosa): 6.25 µg/mL (≈ 18 µM); inhibition zone (IZ) (Fusarium oxysporum): 13 mm; MIC (Fusarium oxysporum): 25 µg/mL (≈ 72 µM)
3 | Cc1ccc2c(COc3cccc(O)c3)cc(=O)oc2c1 | 13 | 12.5 (≈ 44.3 µM) | 16 | 12.5 (≈ 44.3 µM) | 14 | 16 | 14 | 12.5 (≈ 44.3 µM) | 9 | 50 (≈ 177 µM) | 14 | 25 (≈ 88.6 µM) | 16 | 12.5 (≈ 44.3 µM) | inactive | inactive | inactive | 18 | 12.5 (≈ 44.3 µM) | 19 | MIC (Aspergillus niger [6]): 6.25 µg/mL (≈ 22.1 µM); MIC (Staphylococcus aureus [1]): 12.5 µg/mL (≈ 44.3 µM); inhibition zone (IZ) (Candida albicans): 9 mm; MIC (Candida albicans): 25 µg/mL (≈ 88.6 µM); MIC (Pseudomonas aeruginosa): 12.5 µg/mL (≈ 44.3 µM); inhibition zone (IZ) (Fusarium oxysporum): 9 mm; MIC (Fusarium oxysporum): 50 µg/mL (≈ 177 µM)
4 | CC(=O)Nc1cccc(OCc2cc(=O)oc3cc(C)ccc23)c1 | 14 | 12.5 (≈ 38.7 µM) | 14 | 12.5 (≈ 38.7 µM) | 14 | 16 | 15 | 12.5 (≈ 38.7 µM) | 10 | 25 (≈ 77.3 µM) | 16 | 12.5 (≈ 38.7 µM) | 16 | 12.5 (≈ 38.7 µM) | inactive | inactive | inactive | 18 | 12.5 (≈ 38.7 µM) | 19 | MIC (Aspergillus niger [6]): 6.25 µg/mL (≈ 19.3 µM); MIC (Staphylococcus aureus [1]): 12.5 µg/mL (≈ 38.7 µM); inhibition zone (IZ) (Candida albicans): 9 mm; MIC (Candida albicans): 25 µg/mL (≈ 77.3 µM); MIC (Pseudomonas aeruginosa): 12.5 µg/mL (≈ 38.7 µM); inhibition zone (IZ) (Fusarium oxysporum): 9 mm; MIC (Fusarium oxysporum): 50 µg/mL (≈ 155 µM)
5 | O=c1cc(COc2cccc(OCc3cc(=O)oc4ccc5ccccc5c34)c2)c2c(ccc3ccccc32)o1 | 14 | 12.5 (≈ 23.7 µM) | 11 | 25 (≈ 47.5 µM) | 12 | 17 | 12 | 25 (≈ 47.5 µM) | 11 | 25 (≈ 47.5 µM) | 15 | 25 (≈ 47.5 µM) | 15 | 12.5 (≈ 23.7 µM) | inactive | inactive | inactive | 15 | 25 (≈ 47.5 µM) | 16 | MIC (Aspergillus niger [6]): 12.5 µg/mL (≈ 23.7 µM); MIC (Staphylococcus aureus [1]): 25 µg/mL (≈ 47.5 µM); inhibition zone (IZ) (Candida albicans): 13 mm; MIC (Candida albicans): 12.5 µg/mL (≈ 23.7 µM); MIC (Pseudomonas aeruginosa): 12.5 µg/mL (≈ 23.7 µM); inhibition zone (IZ) (Fusarium oxysporum): 13 mm; MIC (Fusarium oxysporum): 25 µg/mL (≈ 47.5 µM)
